In brackets after ≈: the same amount, converted by molar mass.
Experiments:
[1] = X-ray powder diffraction (XRPD) identification of the crystal form; format: physicochemical; conditions: OXY133 sample, method/solvent system
From the text: The many crystalline forms obtained by subjecting a slurry of OXY133 to different conditions of re-slurrying, recrystallizing from different solvent systems at different temperatures may be identified by many analytical methods, for example, XRPD, HPLC-CAD, DSC-TGA and others known in the art. In certain embodiments, the OXY133 polymorphs may be characterized, at least in part, by X-ray Powder Diffraction (XRPD). In particular, crystalline solids produce a distinctive diffraction pattern of peaks, represented in what is referred to as a diffractogram. The peak assignments for a given crystalline material, for example, degree 2θ values, may vary slightly, depending on the instrumentation used to obtain the diffractogram and certain other factors, for example, sample preparation. Nevertheless, these variations should not be more than +/−0.2 degrees 2θ and the relative spacing between the peaks in the diffractogram will always be the same, regardless of the instrumentation used or the method of sample preparation, and the like.
The equipment utilized to collect the XRPD patterns depicted in FIGS. 2A-13B was a Bruker D8 Advance diffractometer using Cu radiation (40 kV, 25 mA) with a divergence slit of 0.3° (0.6 mm), wherein variable slits must be operated in fixed mode. The axial Soller slits, primary and secondary were each set at 2.5°. The anti-scatter slit was set at 0.3° (0.6 mm). The secondary monochromator anti-scatter slit was set at 1 mm and the detector slit at 0.1 mm. If a secondary monochromator is not used, then a suitable […] must be used, namely a Ni filter for Cu radiation. The linear detector LYNXEYE was set at 30 detector opening with the angle scanned from 2 to 45° 2Θ.

[2] = Karl-Fisher (KF) water determination of isolated solid; format: physicochemical; conditions: for KF (water content determined by Karl Fischer water determination method): OXY133 sample, method/solvent system, processing point, temperature and time as in the table row; for KF (Wt %) water content of isolated solid: solid isolated from acetone/water slurry at 0, 10 or 25° C.
From the text: Further, Table 8 below is a list of OXY133 polymorphs Forms A, B, C, D, E, F, G, H and I identified by a high performance liquid chromatography (HPLC) followed by charged aerosol detector (CAD) method. Table 4 also lists the starting products, the solvent system including solvent and anti-solvent, the temperature at which a polymorph was formed, the water content of the polymorph as determined by the Karl-Fisher (KF) method of water determination, and where available the yield and purity of the resulting polymorph.

[3] = for stability in the acetone/water solvent system: acetone/water slurry
[4] = physchem; conditions: acetone, organic solvent or mixture, thermodynamic from solid
[5] = Solubility of OXY133 Form B in organic solvents; conditions: ambient temperature of about 20° C.
[6] = Stability of the crystal form on drying in a vacuum oven; format: physicochemical; conditions: drying at temperatures above about 20° C. to about 30° C.
Protocol: 2.0 g anhydrous OXY133 was added to 10 mL isopropanol in a 100 mL polyblock reactor. The mixture was heated to 30° C. and then stirred at 30° C. for 45 minutes until the solids were dissolved completely. Acceptable heating temperatures ranged from 25° C. to 35° C. A polish filtration step can be added after dissolving the anhydrous OXY133. The mixture of anhydrous OXY133 and isopropanol was then cooled to 5° C. 20 mL of water was then added to the cooled mixture over 120 minutes at 5° C., resulting in the formation of a precipitate approximately one third of the way through the addition of water. The water addition can also be done in temperature ranges from about 0° C. to about 20° C. with no significant effect on the crystal structure. The resulting mixture of OXY133, isopropanol and water was then stirred at 5° C. for 18 hours. However, it is recommended that the resulting mixture could be mixed for at least 2 hours at 5° C. after the water addition was complete to ensure that all solids were precipitated from the solution. A white solid was collected by rapidly filtering the mixture and then washing the solid with 2.0 mL of an isopropanol:water mixture in a ratio of 1:2 v/v. The filtered and washed solids were then dried in a vacuum oven at 20′C. Acceptable temperatures for drying can range from about 20° C. to about 30′C.

[7] = DSC/TGA (differential scanning calorimetry and thermo-gravimetric analysis); format: physicochemical; conditions: isolated solid of Example 6
Protocol: Differential scanning calorimetry (DSC) and thermo-gravimetric analysis (TGA) were also collected for some of the OXY133 polymorphs. The equipment utilized to collect the DSC/TGA data was a Mettler Toledo DSC 2 equipped with an aluminum 40 μL crimped pan with a pin hole and the ramp rate was 10° C./min. DSC/TGA thermograms identifying several OXY133 polymorphs are illustrated in FIGS. 20-25.

[8] = Table 8, processing point (slurry/solid/after drying), temperature and time as in the table row
[9] = Table 9, processing point, temperature

Row | Structure (SMILES) | Crystal Form (XRPD) [1, 8] | Crystal Form (XRPD) [1, 9] | KF (water content determined by Karl Fischer water determination method) [2] [%] | KF (Wt %) water content of isolated solid [2] [Wt %] | also measured
1 | CCCCCC[C@](C)(O)[C@H]1CC[C@H]2[C@@H]3C[C@H](O)[C@H]4C[C@@H](O)CC[C@]4(C)[C@H]3CC[C@@]21C [Form 2891-9-3] | Form A | Form A | 3.83 | 3.83 | 
2 | CCCCCC[C@](C)(O)[C@H]1CC[C@H]2[C@@H]3C[C@H](O)[C@H]4C[C@@H](O)CC[C@]4(C)[C@H]3CC[C@@]21C [Form C] |  |  |  |  | stability in the acetone/water solvent system [3]: fairly stable; conversion from Form C to Form A or Form B ([3]; slurry stirred at about 20° C. in acetone/water): no conversion
3 | CCCCCC[C@](C)(O)[C@H]1CC[C@H]2[C@@H]3C[C@H](O)[C@H]4C[C@@H](O)CC[C@]4(C)[C@H]3CC[C@@]21C [Form B] |  |  |  |  | solubility ([4]; 20 °C): ~10 mg/mL (≈ 23.8 mM); solubility ([4]; 56 °C): ~80 mg/mL (≈ 190 mM); solubility in isopropanol (IPA) ([5]; isopropanol): good; solubility in tetrahydrofuran ([5]; tetrahydrofuran): good
4 | CCCCCC[C@](C)(O)[C@H]1CC[C@H]2[C@@H]3C[C@H](O)[C@H]4C[C@@H](O)CC[C@]4(C)[C@H]3CC[C@@]21C.O [OXY133 Monohydrate, (3S,5S,6S,8R,9S,10R,13S,14S,17S)-17-((S)-2-hydroxyoctan-2-yl)-10,13-dimethylhexadecahydro-1H-cyclopenta[a]phenanthrene-3,6-diol, monohydrate] |  |  |  |  | crystal form stability on drying [6]: slow conversion; KF water content ([2]; isolated solid of Example 6 (IPA/water 1:2, 5° C., dried at 20° C.)): 4.07%; DSC/TGA [7]: 4.76%
5 | CCCCCC[C@](C)(O)[C@H]1CC[C@H]2[C@@H]3C[C@H](O)[C@H]4C[C@@H](O)CC[C@]4(C)[C@H]3CC[C@@]21C [Form F] |  |  |  |  | stability in the acetone/water solvent system [3]: somewhat stable; conversion to any other polymorph forms ([3]; acetone/water system, stirred at about 20° C. or about 5° C.): would not convert
6 | CCCCCC[C@](C)(O)[C@H]1CC[C@H]2[C@@H]3C[C@H](O)[C@H]4C[C@@H](O)CC[C@]4(C)[C@H]3CC[C@@]21C [Form 2891-8-3] | Form A | Form A | 3.25 | 3.25 | 
7 | CCCCCC[C@](C)(O)[C@H]1CC[C@H]2[C@@H]3C[C@H](O)[C@H]4C[C@@H](O)CC[C@]4(C)[C@H]3CC[C@@]21C [Form 2891-10-3] | Form A | Form A | 4.02 | 4.02 | 

Reference: patent US20170275330A1, “POLYMORPHIC FORMS OF AN OXYSTEROL AND METHODS OF MAKING THEM” (Warsaw Orthopedic, Inc., priority 2016, published 2017)
